Source: patent publication US20170038365A1, “SMALL MOLECULE INHIBITORS OF 8-OXOGUANINE DNA GLYCOSYLASE-1 (OGG1)” (OREGON HEALTH & SCIENCE UNIVERSITY, priority 2015, published 2017)

What was measured:
OGG1 [1] = molecular target: T1, OGG1 (Homo sapiens, UniProt O15527); assay: fluorescence-based OGG1 activity assay (TAMRA/BHQ2 8-oxo-Gua substrate); format: biochemical; details: read-out: IC50 (OGG1 inhibition)
T1 construct: His tag; made in house; host or cells: bacterial culture (LB media, IPTG induction)
T1 sequence (O15527 whole entry): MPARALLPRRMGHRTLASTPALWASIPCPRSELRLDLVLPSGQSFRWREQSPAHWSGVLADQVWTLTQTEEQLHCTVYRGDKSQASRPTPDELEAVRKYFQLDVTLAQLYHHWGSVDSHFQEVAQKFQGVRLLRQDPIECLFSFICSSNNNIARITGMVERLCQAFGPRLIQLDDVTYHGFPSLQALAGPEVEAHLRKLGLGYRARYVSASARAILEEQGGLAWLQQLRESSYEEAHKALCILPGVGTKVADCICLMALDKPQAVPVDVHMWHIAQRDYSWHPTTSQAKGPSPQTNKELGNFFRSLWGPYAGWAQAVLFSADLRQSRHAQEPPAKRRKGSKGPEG
Experimental: The OGG1 activity assay utilized a 17-mer oligodeoxynucleotide that contained an 8-oxo-Gua positioned 6 deoxynucleotides downstream of a 5′-TAMRA fluorophore and a complementary DNA strand that contained a 3′-Black Hole Quencher 2 (BHQ2) (FIG. 1). […] Therefore, inhibitors of OGG1 activity would be expected to result in a weaker fluorescence signal over time compared to a no inhibitor control.
The fluorescence-based assay outlined in FIG. 2A was performed in black, low volume 384-well plates with a final volume of 10 μL per well. […] Plates were incubated for 30 min at 37° C. and TAMRA fluorescence in each well was measured using the Biotek Synergy 4 platereader (Filters=Ex 528/20, Em 600/40. Mirror=Top 570 nm with polarizer). Background-subtracted fluorescence values were calculated for each well and any compound that had ≧40% decrease in fluorescence compared to the no inhibitor control was identified as a hit. […]
Assays to calculate IC50 values of OGG1, NEIL1, and NTH1 were fundamentally similar to the high-throughput screen except that the step for the addition of drug differed and a lower enzyme concentration was used. […] Plates were incubated at 37° C. for 40 min (OGG1), 5 min (NEIL1), and 10 min (NTH1), followed by the measurement of TAMRA fluorescence. […]

OGG1 [2] = molecular target: T1, OGG1; assay: sodium cyanoborohydride trapping assay of OGG1 and substrate; format: biochemical; details: 10 μM inhibitor, 1 mM NaBH3CN
Experimental: FIG. 6B is an image and bar graph of Sodium cyanoborohydride trapping of OGG1 and substrate. OGG1 was incubated with 8-oxo-Gua- (top gel), AP site- (bottom gel) or U-containing (last lane in each gel) substrates with or without 10 μM inhibitor or INH. Reactions were performed in the presence of 1 mM NaBH3CN. Top band in each gel corresponds to OGG1 trapped to substrate and the bottom band is untrapped substrate. Bands were quantified in each gel and the percent trapped compared to the no inhibitor control was plotted for each compound. Graph plots equal the mean of three independent experiments. The uncertainties are standard deviations.
FIG. 11 is an image and plot of a dose response for O8 trapping. […] Bands were quantified in each gel and the percent trapped compared to the no inhibitor control (% Trapped) was plotted for each compound. […] Mean T50 values in μM±std. dev. were calculated as described above.
To test whether these inhibitors interfere with catalysis, trapping experiments were conducted by carrying out the OGG1 activity assay in the presence of sodium cyanoborohydride. […] These values are slightly higher, but still very close to the calculated IC50 value for this inhibitor (Table 1).
A total of 4 μL of 2.5×OGG1 (125 nM) was mixed with 1 μL of 10× inhibitor. […] Band intensities were quantified using the Image Studio Lite Software. […]

OGG1 [3] = molecular target: T1, OGG1; assay: gel-based OGG1 cleavage assay on 8-oxo-Gua-containing substrate; format: biochemical; details: eight inhibitor concentrations 0.008-25 μM
Experimental: FIG. 4A is an image and plot showing a gel-based OGG1 activity assay of compound O8. 8-oxo-Gua-containing substrate was incubated without OGG1 (No Enz), with OGG1 (No Inh), or with OGG1+8 different concentrations (25, 8, 2.5, 0.8, 0.25, 0.08, 0.025, 0.008 μM) of inhibitors. The top band in the gel corresponds to uncleaved substrate and the bottom band is cleaved product. The Y-axis on each graph equals the percent substrate cleavage compared to the no inhibitor control (% Activity). Data points equal the mean of three independent experiments. The uncertainties are standard deviations.
Hydrazides Inhibit the Glycosylase and Lyase Activities of OGG1. To verify the results of the fluorescence-based assay, gel-based assays were performed to detect OGG1-mediated strand cleavage of an 8-oxo-Gua-containing substrate at eight different inhibitor concentrations (FIG. 4). […] This assay used γ-irradiated calf thymus DNA as a substrate and measured the number of free 8-oxo-Gua and FapyGua in solution released by OGG1. […]
(§1) Gel-based assays were performed by combining 4 μL of 2.5×OGG1 (62.5 nM) with 1 μL 10× inhibitor or buffer. […] Samples were analyzed by electrophoresis on a 15% polyacrylamide gel containing 8 M urea and bands were visualized by a FluorChem M imager (Protein Simple). Band intensities were quantified using the Image Studio Lite Software (LI-COR).

OGG1 [4] = molecular target: T1, OGG1; assay: OGG1 glycosylase activity on γ-irradiated calf thymus DNA by GC-MS/MS; format: biochemical; details: 0.1 μmol inhibitor
Experimental: FIG. 5B is a bar graph of OGG1 glycosylase activity measured on irradiated calf thymus DNA. The number of excised 8-oxo-Gua per 10^6 DNA bases was measured by GC-MS/MS. Graph plots equal the mean of three independent experiments. The uncertainties are standard deviations.
FIG. 5C is a bar graph of OGG1 glycosylase activity measured on irradiated calf thymus DNA. The number of excised FapyGua per 10^6 DNA bases was measured by GC-MS/MS. Graph plots equal the mean of three independent experiments. The uncertainties are standard deviations.
(§2) Hydrazides Inhibit the Glycosylase and Lyase Activities of OGG1. To verify the results of the fluorescence-based assay, gel-based assays were performed to detect OGG1-mediated strand cleavage of an 8-oxo-Gua-containing substrate at eight different inhibitor concentrations (FIG. 4). […] There are at least three possibilities that could account for how these molecules inhibit DNA strand cleavage by OGG1. […] This assay used γ-irradiated calf thymus DNA as a substrate and measured the number of free 8-oxo-Gua and FapyGua in solution released by OGG1. […]
The enzymatic activities of OGG1, NEIL1 and NTH1 were measured using gas chromatography/isotope-dilution tandem mass spectrometry (GC-MS/MS) and calf thymus DNA samples γ-irradiated at 20 Gy as described in Jaruga et al 2008 infra and Reddy et al, 2013 infra. […]

OGG1 [5] = molecular target: T1, OGG1; assay: OGG1 AP lyase activity on AP site-containing substrate (gel); format: biochemical; details: 10 μM compound, compared to no inhibitor control
Experimental: FIG. 5A is a bar graph of OGG1 lyase activity on a substrate containing an AP site. The substrate was incubated without OGG1 (No Enz), with OGG1 (No Inh), or with OGG1+10 μM compound. The top band in each gel corresponds to uncleaved substrate and the bottom band is cleaved product. Mean percent cleavage compared to the no inhibitor control (% Activity) was plotted for three independent experiments. The uncertainties are standard deviations.
as §2, §1

[6] = molecular target: OGG1 (8-oxoguanine DNA glycosylase-1) (Homo sapiens, UniProt O15527 O15527:1-345); assay: EMSA; 50 nM OGG1, 25 nM DNA, on ice 5 min; also trapped by NaBH3CN (FIG. 6B); binding abrogated by ATA, unaffected by the five inhibitors; details: tags: His-tag; expressed in bacteria, Ni-NTA purified; label: 5'-TAMRA; 3'-BHQ2 on complement in fluorescence assay
Chain of OGG1 (8-oxoguanine DNA glycosylase-1) (O15527 whole entry, one chain of several): as the sequence (O15527 whole entry) above
Experimental: To test whether these inhibitors affected OGG1 binding to an 8-oxo-Gua or AP site, gel shift assays were performed.
All experiments were performed on ice with pre-cooled reagents. […] 5 μL 2× substrate (50 nM) was added, mixed and kept on ice for 5 min. The reaction was quenched with 10 μL ice-cold 30% glycerol and loaded onto a pre-cooled 8% native gel containing 30% glycerol. The gel was run at 4° C. for 1 h (75 V) and bands were visualized by a FluorChem M imager. Band intensities were quantified using the Image Studio Lite Software.

Molecule | IC50 (OGG1 [1]) [nM] | OGG1-mediated excision of 8-oxo-Gua and FapyGua (OGG1 [4]) | effect on OGG1-induced cleavage of an AP site (AP lyase activity) (OGG1 [5]) | further results
NC(=O)c1cc2ccccc2cc1O [3-hydroxy-2-naphthamide] | > 50000 |  |  | 
NNC(=O)c1cc2ccccc2cc1O [3-hydroxy-2-naphthohudrazide] | 75 |  |  | 
8-oxo-Gua 17-mer duplex (dsDNA, n is 8-oxo-guanine; complement SEQ:2 appears printed 3'-5' [6 (8-oxo-guanine)]) DNA 1: TCACCGTCGTACGACTC DNA 2: GAGTCGTACGACGGTGA |  |  |  | binding result [6]: binds

The next lines start with results.

IC50 (OGG1 [1]) [nM] | OGG1-mediated excision of 8-oxo-Gua and FapyGua (OGG1 [4]) | effect on OGG1-induced cleavage of an AP site (AP lyase activity) (OGG1 [5]) | Molecule | further results
 | little to no decrease | no effect | NNC(=O)c1ccncc1 [INH, isoniazid] | effect on trapping of OGG1 (Schiff base formation) on 8-oxo-Gua- and AP site-containing substrates (OGG1 [2]): no effect; inhibition of OGG1-mediated strand cleavage of 8-oxo-Gua-containing substrate (OGG1 [3]): no inhibition
 | little to no decrease | no effect | Cc1cc(C(=O)NNCc2ccccc2)no1 [ICD, isocarboxazid] | 
